Laboratory results as given in patent publication US20060018846A1, “Animo substituted hydroxyphenyl benzophenone derivatives” (priority 2002, published 2006).

What was measured:
[1] = UV spectrum (absorption maximum and molar extinction); assay type: physicochemical
Excerpt: UV Spectrum (in Dioxan) • Maximum at 359 nm; e=34724
UV Spectrum (in Dioxan): • Maximum at 360 nm; e=37900
UV Spectrum (in Dioxan): • Maximum at 359 nm; e=35080
UV-Spectrum in Dioxan: Max. 351 nm, mol Ext. 65551
UV Spectrum in Ethanol: Max. 354 nm, mol. Ext. 65296

[2] = Solubility in Finsolve TN (C 12-15 alkylbenzoate); assay type: physicochemical
Excerpt: It has a good solubility for example in Finsolve TN (C 12-15 alkylbenzoate)>10%.
The obtained compound is an amorphous, yellow powder Solubility in Finsolve TN>30%

Compound | UV spectrum: Maximum (wavelength; 1. Maximum where two are given) ([1]; in Dioxan) | UV spectrum: e / mol Ext. at the maximum (1. Maximum where two are given) ([1]; in Dioxan) | UV spectrum: Max. (wavelength) ([1]; in Ethanol) | UV spectrum: mol. Ext. ([1]; in Ethanol) | Solubility in Finsolve TN (C 12-15 alkylbenzoate) [2] | UV spectrum: 2. Maximum (wavelength) ([1]; in Dioxan) | UV spectrum: e at 2. Maximum ([1]; in Dioxan)
CCN(CC)c1ccc(C(=O)c2ccccc2C(=O)N(CCO)CCO)c(O)c1 [Example 10] | 359 nm | 35080 |  |  |  |  | 
CCN(CC)c1ccc(C(=O)c2ccccc2C(=O)OCC(C)(C)COC(=O)c2ccccc2C(=O)c2ccc(N(CC)CC)cc2O)c(O)c1 [Example 12] |  |  | 354 nm | 65296 | > 30% |  | 
CCN(CC)c1ccc(C(=O)c2ccccc2C(=O)OC2CC(C)CCC2C(C)C)c(O)c1 (centres unmarked) [Example 6] | 351 nm | 38565 |  |  |  |  | 
CCN(CC)c1ccc(C(=O)c2ccccc2C(=O)Nc2ccc(C(N)=O)cc2)c(O)c1 [Example 4] | 358 nm | 34848 |  |  |  |  | 
CCN(CC)c1ccc(C(=O)c2ccccc2C(=O)Nc2ccc(-c3nc4ccc(C)cc4s3)cc2)c(O)c1 [Example 2] | 336 nm | 57318 |  |  |  | 360 nm | 49032
CCN(CC)c1ccc(C(=O)c2ccccc2C(=O)Nc2ccccc2)c(O)c1 [Example 8] | 359 nm | 34724 |  |  |  |  | 
CCN(CC)c1ccc(C(=O)c2ccccc2C(=O)OC/C=C/COC(=O)c2ccccc2C(=O)c2ccc(N(CC)CC)cc2O)c(O)c1 [Example 11] | 351 nm | 65551 |  |  | > 10% |  | 
CCN(CC)c1ccc(C(=O)c2ccccc2C(=O)N2CCOCC2)c(O)c1 [Example 9] | 360 nm | 37900 |  |  |  |  | 
